Reference: patent publication US12460262B2, “Methods of detecting, preventing, reversing, and treating neurological diseases” (Washington University, priority 2018, dated 2025)

Legend:
[1] = test system: Aβ secretion; conditions: in vitro exposure; cited from earlier work
[2] = test system: ISF Aβ levels; design: species or system mice; conditions: mouse, in vivo
Method: To investigate the effect of NAGLU on Aβ generation and clearance, in vivo microdialysis is used to dynamically assess ISF Aβ metabolism in the hippocampus of 5XFAD/NAGLU (+14 5XFAD/NAGLU (−/−) mice and 5XFAD littermates injected with AVV2/9 or PBS at 3-4 months of age. To assess ISF Aβ levels over time in the hippocampus of awake, freely moving mice in vivo microdialysis is performed as previously described. Briefly, under isoflurane anesthesia, a guide cannula is stereotaxically implanted above the hippocampus (3.1 mm behind bregma, 2.5 mm lateral to midline, and 1.2 mm below dura at a 12° angle). A microdialysis probe is inserted through the guide cannula into the brain. Artificial CSF is used as microdialysis perfusion buffer. Microdialysis samples are collected every 60-90 min and are assessed for Aβ40 or Aβ42 by ELISAs. The mean concentration of Aβ over 6 hr is defined as basal concentration of ISF Aβ. For each animal, all Aβ concentrations are normalized to the basal Aβ concentration for that mouse. After basal concentration is determined mice are administered a blood-brain permeable γ-secretase inhibitor (LY411575, 3 mg/kg subcutaneously) to rapidly block the production of Aβ. […] The half-life of ISF Aβ is calculated on the basis of the slope of the semi-log plot of % change in Aβ versus time. […]

[3] = test system: cultured fibroblasts of MPS patients; conditions: cited from earlier work
[4] = test system: NAGLU-deficient mice; conditions: cited from earlier work

In the case of `CO/C1=C\C(C)=C\[C@@H](C)[C@@H](O)[C@@H](C)C/C(C)=C/C=C/[C@H](OC)[C@@H]([C@@H](C)[C@@H](O)[C@H](C)[C@@]2(O)C[C@@H](O)[C@H](C)[C@@H](C(C)C)O2)OC1=O` [bafilomycin A1], the Aβ secretion [1] is listed as “reduces Aβ secretion”.
In the case of `CCN(CC)CCCC(C)Nc1ccnc2cc(Cl)ccc12` (centres unmarked) [Chloroquine], the “change of ISF levels of Aβ” value [2] is reported as “did not change”.
In the case of `Cl.N` [ammonium chloride], the Aβ secretion [1] is given as “reduces Aβ secretion”.
In the case of `O=c1c(-c2ccc(O)cc2)coc2cc(O)cc(O)c12` [Genistein, 4′,5,7-trihydroxyisoflavone or 5,7-dihydroxy-3-(4-hydroxyphenyl)-4H-1-benzopyran-4-one], the “synthesis of glycosaminoglycans (GAGs)” value [3] is given as “inhibits synthesis of glycosaminoglycans (GAGs)” and the lysosomal storage material [4] is given as “reduces lysosomal storage material”.
